# Test results from ChEMBL document CHEMBL1773059, “NMS-P937, a 4,5-dihydro-1H-pyrazolo[4,3-h]quinazoline derivative as potent and selective Polo-like kinase 1 inhibitor” (Bioorg Med Chem Lett, 2011).
# Legend:
# [1] = biological target: Mitogen-activated protein kinase 14 (Homo sapiens, UniProt Q16539); assay: Inhibition of P38alpha assessed as [33P]gamma-ATP incorporation into substrate after 60 mins by gamma counting
# HCT-116 [2] = assay: Antitumor activity against human HCT116 cells xenografted in CD1 nu/nu mouse assessed as tumor growth inhibition at 120 mg/kg, po once daily administered on days 1 to 2 daily in weekly scheduling for 4 cycles measured on day 36; settings: HCT-116, po, 864 h, read-out: TGI
# [3] = biological target: Vascular endothelial growth factor receptor 3 (Homo sapiens, UniProt P35916); assay: Inhibition of VEGFR3 assessed as [33P]gamma-ATP incorporation into substrate after 60 mins by gamma counting
# [4] = biological target: Protein-tyrosine kinase 6 (Homo sapiens, UniProt Q13882); assay: Inhibition of BRK assessed as [33P]gamma-ATP incorporation into substrate after 60 mins by gamma counting
# [5] = biological target: Cyclin-dependent kinase 2/cyclin E1 (Homo sapiens, UniProt P24941); assay: Inhibition of CDK2/CYCE assessed as [33P]gamma-ATP incorporation into substrate after 60 mins by gamma counting; format: protein-complex assay
# [6] = Solubility of compound in 10% Tween 80; format: physicochemical
# [7] = Solubility of compound at pH 7; format: physicochemical; settings: buffer
# Caco-2 = assay: Apparent permeability of the compound across human Caco2 cells; format: ADME, cell-based
# [8] = biological target: Serine/threonine-protein kinase Chk1 (Homo sapiens, UniProt O14757); assay: Inhibition of CHK1 assessed as [33P]gamma-ATP incorporation into substrate after 60 mins by gamma counting
# [9] = biological target: Cyclin-dependent kinase 2/cyclin A (Homo sapiens, UniProt P24941); assay: Inhibition of CDK2/CYCA assessed as [33P]gamma-ATP incorporation into substrate after 60 mins by gamma counting; format: protein-complex assay
# [10] = biological target: RAC-alpha serine/threonine-protein kinase (Homo sapiens, UniProt P31749); assay: Inhibition of AKT1 assessed as [33P]gamma-ATP incorporation into substrate after 60 mins by gamma counting
# [11] = Apparent permeability of the compound by PAMPA assay; format: ADME
# [12] = biological target: Mitotic checkpoint serine/threonine-protein kinase BUB1 (Homo sapiens, UniProt O43683); assay: Inhibition of BUB1 assessed as [33P]gamma-ATP incorporation into substrate after 60 mins by gamma counting
# [13] = biological target: MAP kinase-interacting serine/threonine-protein kinase 2 (Homo sapiens, UniProt Q9HBH9); assay: Inhibition of MNK2 assessed as [33P]gamma-ATP incorporation into substrate after 60 mins by gamma counting
# [14] = biological target: Tyrosine-protein kinase ZAP-70 (Homo sapiens, UniProt P43403); assay: Inhibition of ZAP70 assessed as [33P]gamma-ATP incorporation into substrate after 60 mins by gamma counting
# Chain of Tyrosine-protein kinase ZAP-70 (P43403 whole entry): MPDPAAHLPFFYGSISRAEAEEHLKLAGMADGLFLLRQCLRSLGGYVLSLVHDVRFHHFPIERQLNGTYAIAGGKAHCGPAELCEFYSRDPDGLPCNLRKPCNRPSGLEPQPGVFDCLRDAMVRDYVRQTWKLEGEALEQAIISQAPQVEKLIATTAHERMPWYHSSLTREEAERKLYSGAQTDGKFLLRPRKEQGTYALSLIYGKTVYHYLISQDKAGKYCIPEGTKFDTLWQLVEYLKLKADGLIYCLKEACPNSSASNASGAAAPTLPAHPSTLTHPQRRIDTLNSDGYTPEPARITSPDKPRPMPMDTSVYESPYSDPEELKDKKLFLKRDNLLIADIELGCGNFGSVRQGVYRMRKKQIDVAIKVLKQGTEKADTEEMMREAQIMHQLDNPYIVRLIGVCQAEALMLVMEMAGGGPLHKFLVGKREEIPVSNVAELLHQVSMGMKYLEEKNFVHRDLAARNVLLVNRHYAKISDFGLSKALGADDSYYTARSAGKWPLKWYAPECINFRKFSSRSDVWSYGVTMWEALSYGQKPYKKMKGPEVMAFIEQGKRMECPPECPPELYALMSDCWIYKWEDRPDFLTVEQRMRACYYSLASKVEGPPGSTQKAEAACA
# [15] = biological target: Protein kinase C beta type (Homo sapiens, UniProt P05771); assay: Inhibition of PKCbeta assessed as [33P]gamma-ATP incorporation into substrate after 60 mins by gamma counting
# [16] = biological target: High affinity nerve growth factor receptor (Homo sapiens, UniProt P04629); assay: Inhibition of TRKA assessed as [33P]gamma-ATP incorporation into substrate after 60 mins by gamma counting
# Chain of High affinity nerve growth factor receptor (P04629 whole entry): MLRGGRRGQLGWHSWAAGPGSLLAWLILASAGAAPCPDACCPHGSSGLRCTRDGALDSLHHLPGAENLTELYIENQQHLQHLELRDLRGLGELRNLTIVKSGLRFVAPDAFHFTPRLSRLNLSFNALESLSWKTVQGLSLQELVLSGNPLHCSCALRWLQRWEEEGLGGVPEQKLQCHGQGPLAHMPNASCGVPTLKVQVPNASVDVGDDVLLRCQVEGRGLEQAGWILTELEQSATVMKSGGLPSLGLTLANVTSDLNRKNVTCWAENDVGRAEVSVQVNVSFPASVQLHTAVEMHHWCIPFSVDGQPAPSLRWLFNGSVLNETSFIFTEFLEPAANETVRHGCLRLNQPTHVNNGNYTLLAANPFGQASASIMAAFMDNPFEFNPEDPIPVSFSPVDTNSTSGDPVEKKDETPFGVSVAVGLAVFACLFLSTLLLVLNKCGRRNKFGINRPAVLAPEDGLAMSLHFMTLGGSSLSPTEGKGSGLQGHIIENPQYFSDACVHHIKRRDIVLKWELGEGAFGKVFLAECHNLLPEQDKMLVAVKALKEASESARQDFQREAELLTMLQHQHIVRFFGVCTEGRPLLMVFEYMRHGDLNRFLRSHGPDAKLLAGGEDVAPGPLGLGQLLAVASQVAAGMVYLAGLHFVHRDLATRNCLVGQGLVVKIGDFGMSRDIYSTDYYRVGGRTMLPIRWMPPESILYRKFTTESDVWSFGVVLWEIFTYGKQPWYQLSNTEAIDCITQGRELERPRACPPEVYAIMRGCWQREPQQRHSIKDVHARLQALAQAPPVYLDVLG
# HCT-116 [17] = assay: Antitumor activity against human HCT116 cells xenografted in CD1 nu/nu mouse assessed as tumor growth inhibition at 90 mg/kg, po once daily administered on days 1 to 2 daily in weekly scheduling for 4 cycles measured on day 36; settings: HCT-116, po, 864 h, read-out: TGI
# [18] = biological target: Cyclin-dependent kinase 4/cyclin D1 (Homo sapiens, UniProt P11802); assay: Inhibition of CDK4/CYCD1 assessed as [33P]gamma-ATP incorporation into substrate after 60 mins by gamma counting; format: protein-complex assay
# [19] = biological target: Vascular endothelial growth factor receptor 2 (Homo sapiens, UniProt P35968); assay: Inhibition of VEGFR2 assessed as [33P]gamma-ATP incorporation into substrate after 60 mins by gamma counting
# Chain of Vascular endothelial growth factor receptor 2 (P35968 whole entry): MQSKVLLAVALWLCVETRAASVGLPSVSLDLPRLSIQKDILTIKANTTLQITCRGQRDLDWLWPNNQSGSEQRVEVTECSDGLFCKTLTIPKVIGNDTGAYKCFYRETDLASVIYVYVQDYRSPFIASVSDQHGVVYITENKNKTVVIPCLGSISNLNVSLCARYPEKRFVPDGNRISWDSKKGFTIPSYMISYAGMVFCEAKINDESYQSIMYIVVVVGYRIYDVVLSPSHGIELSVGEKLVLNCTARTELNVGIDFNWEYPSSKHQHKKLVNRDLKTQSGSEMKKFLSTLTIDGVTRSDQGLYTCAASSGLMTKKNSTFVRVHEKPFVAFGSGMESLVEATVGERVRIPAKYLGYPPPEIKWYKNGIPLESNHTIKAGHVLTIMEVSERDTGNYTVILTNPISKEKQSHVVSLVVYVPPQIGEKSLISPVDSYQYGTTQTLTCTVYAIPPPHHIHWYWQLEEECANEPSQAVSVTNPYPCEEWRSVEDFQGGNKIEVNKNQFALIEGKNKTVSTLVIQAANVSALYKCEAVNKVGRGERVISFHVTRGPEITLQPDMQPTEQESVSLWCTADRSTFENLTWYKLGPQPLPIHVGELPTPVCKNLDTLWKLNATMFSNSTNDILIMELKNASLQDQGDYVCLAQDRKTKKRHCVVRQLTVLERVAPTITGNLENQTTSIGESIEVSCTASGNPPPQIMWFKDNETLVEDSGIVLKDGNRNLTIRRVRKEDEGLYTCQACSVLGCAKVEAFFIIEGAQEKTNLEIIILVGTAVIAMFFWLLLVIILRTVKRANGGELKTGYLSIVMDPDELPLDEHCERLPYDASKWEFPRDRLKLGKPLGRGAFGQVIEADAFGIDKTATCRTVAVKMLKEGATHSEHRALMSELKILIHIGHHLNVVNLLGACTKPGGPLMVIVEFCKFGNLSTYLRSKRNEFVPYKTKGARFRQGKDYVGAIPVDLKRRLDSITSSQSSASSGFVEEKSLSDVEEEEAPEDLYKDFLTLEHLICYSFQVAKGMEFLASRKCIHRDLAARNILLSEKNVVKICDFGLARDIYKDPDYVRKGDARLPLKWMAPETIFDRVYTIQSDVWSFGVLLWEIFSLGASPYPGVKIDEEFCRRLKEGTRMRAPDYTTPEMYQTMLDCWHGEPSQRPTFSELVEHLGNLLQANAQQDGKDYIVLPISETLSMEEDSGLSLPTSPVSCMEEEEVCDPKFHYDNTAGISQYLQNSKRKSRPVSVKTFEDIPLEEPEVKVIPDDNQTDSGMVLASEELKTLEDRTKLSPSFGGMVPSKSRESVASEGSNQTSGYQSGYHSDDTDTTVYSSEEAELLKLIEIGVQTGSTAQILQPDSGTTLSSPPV
# Mus musculus [20] = assay: Toxicity in CD1 nu/nu mouse xenografted with human HCT116 cells assessed as mortality at 120 mg/kg, po BID administered on days 1 to 2 in weekly scheduling for 4 cycles; format: organism-based, HCT-116; set-up: dose 120 mg/kg, route oral; settings: in vivo
# [21] = biological target: Serine/threonine-protein kinase pim-1 (Homo sapiens, UniProt P11309); assay: Inhibition of PIM1 assessed as [33P]gamma-ATP incorporation into substrate after 60 mins by gamma counting
# Chain of Serine/threonine-protein kinase pim-1 (P11309 whole entry): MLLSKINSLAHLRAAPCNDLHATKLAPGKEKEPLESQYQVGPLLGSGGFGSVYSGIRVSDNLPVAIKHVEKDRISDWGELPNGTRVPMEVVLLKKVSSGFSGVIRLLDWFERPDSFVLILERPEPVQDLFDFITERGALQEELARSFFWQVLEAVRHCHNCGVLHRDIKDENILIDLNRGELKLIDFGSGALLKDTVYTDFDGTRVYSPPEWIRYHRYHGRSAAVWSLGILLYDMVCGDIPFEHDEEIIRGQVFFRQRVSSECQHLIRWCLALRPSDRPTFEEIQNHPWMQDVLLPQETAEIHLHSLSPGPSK
# Activated CDC42 kinase 1 = Activated CDC42 kinase 1 (Homo sapiens, UniProt Q07912); assay: Inhibition of ACK1 assessed as [33P]gamma-ATP incorporation into substrate after 60 mins by gamma counting
# [22] = biological target: Tyrosine-protein kinase Lyn (Homo sapiens, UniProt P07948); assay: Inhibition of LYN assessed as [33P]gamma-ATP incorporation into substrate after 60 mins by gamma counting
# Chain of Tyrosine-protein kinase Lyn (P07948 whole entry): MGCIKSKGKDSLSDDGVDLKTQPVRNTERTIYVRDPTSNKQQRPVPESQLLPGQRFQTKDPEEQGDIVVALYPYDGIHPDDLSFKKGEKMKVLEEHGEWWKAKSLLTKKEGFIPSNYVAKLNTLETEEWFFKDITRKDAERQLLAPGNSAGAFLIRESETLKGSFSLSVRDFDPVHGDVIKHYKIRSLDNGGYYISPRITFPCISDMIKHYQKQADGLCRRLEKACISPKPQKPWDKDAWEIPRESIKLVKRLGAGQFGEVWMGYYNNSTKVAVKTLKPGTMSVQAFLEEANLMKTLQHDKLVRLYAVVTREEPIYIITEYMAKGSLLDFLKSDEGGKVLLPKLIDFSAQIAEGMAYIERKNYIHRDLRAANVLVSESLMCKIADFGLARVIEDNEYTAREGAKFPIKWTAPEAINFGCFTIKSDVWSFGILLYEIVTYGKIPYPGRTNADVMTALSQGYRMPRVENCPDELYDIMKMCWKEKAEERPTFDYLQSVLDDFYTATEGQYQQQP
# [23] = biological target: Serine/threonine-protein kinase haspin (Homo sapiens, UniProt Q8TF76); assay: Inhibition of Haspin assessed as [33P]gamma-ATP incorporation into substrate after 60 mins by gamma counting
# Chain of Serine/threonine-protein kinase haspin (Q8TF76 whole entry): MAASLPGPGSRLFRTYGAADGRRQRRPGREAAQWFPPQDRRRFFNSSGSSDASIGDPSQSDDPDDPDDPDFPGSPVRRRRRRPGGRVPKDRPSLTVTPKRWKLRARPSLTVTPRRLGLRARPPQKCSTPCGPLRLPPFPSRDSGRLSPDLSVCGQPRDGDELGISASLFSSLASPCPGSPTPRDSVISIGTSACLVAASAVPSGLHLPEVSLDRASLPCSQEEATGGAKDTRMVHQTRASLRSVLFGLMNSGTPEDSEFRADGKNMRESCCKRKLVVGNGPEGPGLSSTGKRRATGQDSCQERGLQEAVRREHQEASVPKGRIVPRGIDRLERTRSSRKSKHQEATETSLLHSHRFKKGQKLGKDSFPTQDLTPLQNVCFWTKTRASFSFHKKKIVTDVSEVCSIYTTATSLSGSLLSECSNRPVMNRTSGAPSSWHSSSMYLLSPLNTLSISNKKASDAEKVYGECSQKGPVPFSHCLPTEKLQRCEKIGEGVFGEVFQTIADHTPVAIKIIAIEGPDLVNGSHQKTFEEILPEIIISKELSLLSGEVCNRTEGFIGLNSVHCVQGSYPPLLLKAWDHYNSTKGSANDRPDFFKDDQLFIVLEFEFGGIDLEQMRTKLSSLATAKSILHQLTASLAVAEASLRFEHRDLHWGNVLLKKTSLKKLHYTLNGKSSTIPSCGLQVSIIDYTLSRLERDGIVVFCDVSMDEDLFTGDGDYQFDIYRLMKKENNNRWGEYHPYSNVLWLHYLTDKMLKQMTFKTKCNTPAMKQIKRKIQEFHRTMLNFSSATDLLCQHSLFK
# Mus musculus [24] = assay: Toxicity in CD1 nu/nu mouse xenografted with human HCT116 cells assessed as mortality at 90 mg/kg, po BID administered on days 1 to 2 in weekly scheduling for 4 cycles; format: organism-based, HCT-116; set-up: dose 90 mg/kg, route oral; settings: in vivo
# [25] = Intrinsic clearance in rat hepatocytes at 1 uM; format: ADME, cell-based, Liver, Hepatocyte
# [26] = biological target: CDC7/DBF4 (Cell division cycle 7-related protein kinase/Activator of S phase kinase) (Homo sapiens, UniProt O00311); assay: Inhibition of CDC7/DBF4 assessed as [33P]gamma-ATP incorporation into substrate after 60 mins by gamma counting; format: protein-complex assay
# [27] = biological target: Epidermal growth factor receptor (Homo sapiens, UniProt P04626+P00533+Q15303+P21860); assay: Inhibition of EGFR1 assessed as [33P]gamma-ATP incorporation into substrate after 60 mins by gamma counting; format: protein assay
# [28] = Inhibition of CK2 assessed as [33P]gamma-ATP incorporation into substrate after 60 mins by gamma counting
# [29] = biological target: Eukaryotic translation initiation factor 2-alpha kinase 3 (Homo sapiens, UniProt Q9NZJ5); assay: Inhibition of PERK assessed as [33P]gamma-ATP incorporation into substrate after 60 mins by gamma counting
# Chain of Mitogen-activated protein kinase 14 (Q16539 whole entry): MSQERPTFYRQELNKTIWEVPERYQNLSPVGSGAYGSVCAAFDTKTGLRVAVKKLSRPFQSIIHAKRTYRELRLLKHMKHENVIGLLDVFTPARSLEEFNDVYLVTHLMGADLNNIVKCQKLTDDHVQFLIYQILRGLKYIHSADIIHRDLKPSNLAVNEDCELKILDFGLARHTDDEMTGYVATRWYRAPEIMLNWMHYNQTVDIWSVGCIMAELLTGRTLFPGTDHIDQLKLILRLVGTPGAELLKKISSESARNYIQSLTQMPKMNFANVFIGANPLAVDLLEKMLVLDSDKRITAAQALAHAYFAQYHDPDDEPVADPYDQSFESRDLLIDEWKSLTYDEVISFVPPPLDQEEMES
smiles,measurement,setting,value
CN1CCN(c2ccc(OC(F)(F)F)c(Nc3ncc4c(n3)-c3c(c(C(N)=O)nn3CCO)CC4)c2)CC1 [ONVANSERTIB],IC50,[1],> 10 µM
same,inhibition in vivo at 120 mg/kg,HCT-116 [2],84%
same,IC50,[3],> 10 µM
same,IC50,[4],> 10 µM
same,IC50,[5],> 10 µM
same,solubility,[6],> 3400 µg/mL
same,solubility,[7],201 µM
same,Papp,Caco-2,permeable
same,IC50,[8],> 10 µM
same,IC50,[9],> 10 µM
same,IC50,[10],> 10 µM
same,Papp,[11],49.6 ×10⁻⁶ cm/s
same,IC50,[12],> 10 µM
same,IC50,[13],> 10 µM
same,IC50,[14],> 10 µM
same,IC50,[15],> 10 µM
same,IC50,[16],> 10 µM
same,inhibition in vivo at 90 mg/kg,HCT-116 [17],71%
same,IC50,[18],> 10 µM
same,IC50,[19],> 10 µM
same,Activity,Mus musculus [20],Non-toxic
same,IC50,[21],> 10 µM
same,IC50,Activated CDC42 kinase 1,> 10 µM
same,IC50,[22],> 10 µM
same,IC50,[23],> 10 µM
same,Activity,Mus musculus [24],Non-toxic
same,CLint scaled at 1 µM,[25],165 mL/min/kg
same,IC50,[26],> 10 µM
same,IC50,[27],> 10 µM
same,IC50,[28],0.826 µM
same,IC50,[29],> 10 µM
